Species on record: Rattus norvegicus
Test: DrugMatrix - Regimen: Daily Repeat
Assay type: toxicity, organism-based, Sprague-Dawley
Set-up: regimen Daily Repeat, gender Male, age 6-8 weeks
Settings: in vivo, iv, 0 mg/kg, dose level Control, vehicle 100 % SALINE
[1] = 72 h, tissue Plasma, time 3 day
[2] = 120 h, tissue Blood, time 5 day
[3] = 120 h, tissue Plasma, time 5 day

LIPOPOLYSACCHARIDE E. COLI O55:B5
ABSOLUTE BASOPHIL (72 h, tissue Blood, time 3 day): 0 CELLS/uL | ABSOLUTE EOSINOPHIL (72 h, tissue Blood, time 3 day): 33.67 CELLS/uL | ABSOLUTE LYMPHOCYTE (72 h, tissue Blood, time 3 day): 12123.5 CELLS/uL | ABSOLUTE MONOCYTE (72 h, tissue Blood, time 3 day): 243.5 CELLS/uL | ABSOLUTE SEGMENTED NEUTROPHIL (72 h, tissue Blood, time 3 day): 1282.67 CELLS/uL | BASOPHIL (72 h, tissue Blood, time 3 day): 0% | EOSINOPHIL (72 h, tissue Blood, time 3 day): 0.33% | ERYTHROCYTE COUNT (72 h, tissue Blood, time 3 day): 5.18 x10E6/uL | HEMATOCRIT (72 h, tissue Blood, time 3 day): 32.63% | LEUKOCYTE COUNT (72 h, tissue Blood, time 3 day): 13.68 x10E3/uL | LYMPHOCYTE (72 h, tissue Blood, time 3 day): 88.67% | MEAN CORPUSCULAR HEMOGLOBIN (72 h, tissue Blood, time 3 day): 24.98 pg | NEUTROPHIL (72 h, tissue Blood, time 3 day): 9.17% | NUCLEATED RED BLOOD CELLS (72 h, tissue Blood, time 3 day): 0.17 /100WBC | PLATELET COUNT (72 h, tissue Blood, time 3 day): 1114.5 x10E3/uL | ALANINE AMINOTRANSFERASE [1]: 46.17 u/L | ALKALINE PHOSPHATASE [1]: 374.67 u/L | ASPARTATE AMINOTRANSFERASE [1]: 89.33 u/L | BLOOD UREA NITROGEN [1]: 14.83 mg/dL | CARBON DIOXIDE [1]: 25.67 mmol/L | CHOLESTEROL [1]: 63.5 mg/dL | CREATINE PHOSPHOKINASE [1]: 494.67 u/L | CREATININE [1]: 0.17 mg/dL | LACTATE DEHYDROGENASE [1]: 269.33 u/L | PHOSPHORUS [1]: 11.27 mg/dL | POTASSIUM [1]: 5.85 MEQ/L | TOTAL BILIRUBIN [1]: 0.18 mg/dL | TOTAL PROTEIN [1]: 5.87 G/DL | URIC ACID [1]: 1.28 mg/dL | ABSOLUTE BASOPHIL [2]: 0 CELLS/uL | ABSOLUTE EOSINOPHIL [2]: 24.67 CELLS/uL | ABSOLUTE LYMPHOCYTE [2]: 11832.83 CELLS/uL | ABSOLUTE MONOCYTE [2]: 279.67 CELLS/uL | ABSOLUTE SEGMENTED NEUTROPHIL [2]: 1446.17 CELLS/uL | BASOPHIL [2]: 0% | EOSINOPHIL [2]: 0.17% | ERYTHROCYTE COUNT [2]: 5.61 x10E6/uL | HEMATOCRIT [2]: 35.02% | HEMOGLOBIN [2]: 13.82 G/DL | LEUKOCYTE COUNT [2]: 13.58 x10E3/uL | LYMPHOCYTE [2]: 87.67% | MEAN CORPUSCULAR HEMOGLOBIN [2]: 24.68 pg | MONOCYTE [2]: 2% | NEUTROPHIL [2]: 10.17% | NUCLEATED RED BLOOD CELLS [2]: 0 /100WBC | PLATELET COUNT [2]: 1178.17 x10E3/uL | ALANINE AMINOTRANSFERASE [3]: 52.83 u/L | ALKALINE PHOSPHATASE [3]: 370 u/L | ASPARTATE AMINOTRANSFERASE [3]: 100.5 u/L | BLOOD UREA NITROGEN [3]: 15.17 mg/dL | CARBON DIOXIDE [3]: 28.83 mmol/L | CHOLESTEROL [3]: 69.5 mg/dL | CREATINE PHOSPHOKINASE [3]: 488.67 u/L | CREATININE [3]: 0.23 mg/dL | GLUCOSE [3]: 165 mg/dL | LACTATE DEHYDROGENASE [3]: 502.17 u/L | LIPASE [3]: 11 u/L | PHOSPHORUS [3]: 11.7 mg/dL | POTASSIUM [3]: 5.85 MEQ/L | TOTAL BILIRUBIN [3]: 0.18 mg/dL
